Read-outs that look alike come from different tables or passages of the source.
Experiments:
[1] = Concentration in blood after a single sublingual or per oral swallowed dose of halazepam 20 mg standard tablet; format: in vivo, volunteer adult humans; conditions: sublingual administration of halazepam versus oral
Description: Test results will now be described. Testing was carried out using volunteer adult humans. Standard tablets containing, as active ingredient, solely quazepam or solely halazepam, were used. […]

[2] = Pharmacokinetics in blood plasma after a single sublingual or per oral swallowed dose of quazepam 15 mg standard tablet; format: in vivo, volunteer adult humans; conditions: for Lag time / half-life / Tmax / Cmax / AUC / CL/F: mean ± SD; for half-life / Tmax / Cmax / AUC: human; for half-life: plasma, 15 mg; for Tmax: time to Cmax; for Cmax: quazepam peak plasma concentration; for AUC: quazepam, area under plasma concentration-time curve; for CL/F: quazepam clearance
Description: Test results will now be described. Testing was carried out using volunteer adult humans. Standard tablets containing, as active ingredient, solely quazepam or solely halazepam, were used. Such tablets were intended by their manufacturers to be swallowed but dissolved adequately in the mouth to permit the intraoral testing. • Figure 1 is a graph illustrating the concentration of quazepam (Q) and N-desalkyl-2-oxoquazepam (DOQ) in the blood plasma over 96 hours following a single sublingual dose (SL) or per oral swallowed dose (PO) of quazepam in a 15 mg standard tablet. • Figure 2 is a graph illustrating the concentration of quazepam (Q) and N-desalkyl-2-oxoquazepam (DOQ) in the blood plasma over 210 hours following a single sublingual dose (SL) or per oral swallowed dose (PO) of quazepam in a 15 mg standard tablet. • Figure 3 is a graph of computer simulated concentration levels of quazepam and N-desalkyl-2-oxoquazepam in the blood following sublingual and oral swallowed doses of quazepam (15 mg standard tablet) once a day for a 15 day period illustrating the marked reduction in accumulated levels of desalkyloxoquazepam with sublingual dosing; • Figure 4 is a graph illustrating the concentration of halazepam (HZ) and N-desalkyl-3-hydroxy-halazepam (ND) in the blood over 96 hours following a single sublingual dose (SL) or per oral swallowed dose (PO) of halazepam in a 20 mg standard tablet. • Figure 5 is a graph illustrating the concentration of halazepam (HZ) and N-desalkyl-3-hydroxy-halazepam (ND) in the blood over 240 hours following a single sublingual dose (SL) or per oral swallowed (PO) of halazepam in a 20 mg standard tablet; and • Figure 6 is a flow chart of the method of the present invention.
This change in concentrations for the two compounds can be seen with reference to Figure 1 and Figure 2 of the drawings where the differences in the parent compound Q and the metabolite DOQ for both the oral and sublingual dosing is shown. In Figure 3, by use of standard mutliple Q dose simulations, the differences in accumulation of Q and DOQ for sublingual versus oral dosing over 15 days is shown. With chronic dosing it is readily apparent that after 15 days the DOQ level, following oral administration, has reached levels that are associated with the threshold for impairing ataxic and incoordination affects (especially if larger doses are given).
In Table 1 and Table 2, set forth below, the average pharmacokinetic parameters for both Q and DOQ for both oral and sublingual routes of administration are set forth: TABLE I

[3] = quazepam in plasma, oral quazepam 15 mg
[4] = quazepam in plasma, sublingual quazepam 15 mg

With `O=C1CN=C(c2ccccc2)c2cc(Cl)ccc2N1CC(F)(F)F` [halazepam, 7-chloro-1,3 dihydro-5-phenyl-1-1-(2,2,2-trifluoroethyl)-2H-1,4-benzodiazepine-2-one] the availability of halazepam [1] was “significantly increased”.

With `O=C1Nc2ccc(Cl)cc2C(c2ccccc2)=NC1O` (stereo not shown) [N-dealkyl-hydroxy-halazepam, N-desalkyl-3-hydroxy-halazepam] the “level of metabolite N-dealkyl-hydroxy-halazepam” value [1] was “reducing”.

In the case of `O=C1CN=C(c2ccccc2F)c2cc(Cl)ccc2N1` [N-DESALKYL-2-OXOQUAZEPAM, N-desalkyl-2-oxoquazepam], the Lag time ([2]; metabolite N-desalkyl-2-oxoquazepam in plasma, oral quazepam 15 mg) is reported as 0.66 ± 0.32 h, the Lag time ([2]; metabolite N-desalkyl-2-oxoquazepam in plasma, sublingual quazepam 15 mg) is reported as 1.74 ± 0.86 h and the “DOQ level relative to oral quazepam administration levels” value ([2]; sublingual dosing of quazepam versus oral) is reported as “about one-half”.

`Fc1ccccc1C1=NCC(=S)N(CC(F)(F)F)c2ccc(Cl)cc21` [quazepam, 7-chloro-1-(2,2,2-trifluorethyl)-5-(o-fluorophenyl)-1,3-dihydro-2H-1,4-benzodiazepine-2-thione] showed a half-life ([2]; quazepam in plasma, absorption half-life, sublingual quazepam 15 mg, read-out: t1/2 Ka (converted)) of 0.27 ± 0.1 h, a half-life ([2]; quazepam in plasma, rapid distribution half-life, sublingual quazepam 15 mg, read-out: t1/2 λ₁ (converted)) of 1.44 ± 0.45 h and a half-life ([2]; quazepam in plasma, terminal elimination half-life, sublingual quazepam 15 mg, read-out: t1/2 λ₂ (converted)) of 27.7 ± 7.18 h. The half-life ([2]; po, quazepam in plasma, absorption half-life, oral quazepam 15 mg, read-out: t1/2 Ka (converted)) was 0.77 ± 0.23 h, the half-life ([2]; po, quazepam in plasma, rapid distribution half-life, oral quazepam 15 mg, read-out: t1/2 λ₁ (converted)) was 1.73 ± 0.65 h and the half-life ([2]; po, quazepam in plasma, terminal elimination half-life, oral quazepam 15 mg, read-out: t1/2 λ₂ (converted)) was 24.6 ± 8.35 h. For the same molecule, the Tmax [2, 3] was 2.57 ± 1.69 h, the Tmax [2, 4] was 0.78 ± 0.31 h and the Cmax ([2]; oral quazepam 15 mg) was 26.7 ± 6.83 ng/mL. It also gave a Cmax ([2]; sublingual quazepam 15 mg) of 42.4 ± 10.4 ng/mL, an AUC ([2]; oral quazepam 15 mg) of 473 ± 239 ng·h/mL and an AUC ([2]; sublingual quazepam 15 mg) of 1460 ± 299 ng·h/mL. It also gave a CL/F ([2]; oral quazepam 15 mg) of 37.56 ± 16.89 h⁻¹, a CL/F ([2]; sublingual quazepam 15 mg) of 8.78 ± 5.25 h⁻¹ and a Lag time [2, 3] of 0.52 ± 0.28 h. For the same molecule, the Lag time [2, 4] was 0.18 ± 0.05 h and the “increase of availability of quazepam” value ([2]; sublingual dosing in contrast to oral dosing of quazepam) was “about 60%”.
